Measurements reported in US20170329062A1, “OPTICAL FILM AND FLEXIBLE DEVICE USING THE OPTICAL FILM” (SUMITOMO CHEMICAL COMPANY, LIMITED, priority 2016, published 2017).

Tests used:
[1] = Molar extinction coefficient of ultraviolet absorbent in 20 mg/L toluene solution; assay type: physicochemical
Procedure: (manufactured by JASCO Corporation) Measured Concentration: 20 mg/L Solvent: toluene

[2] = Solubility of ultraviolet absorbent in N,N-dimethylacetamide at 25° C.; assay type: physicochemical

SMILES	Molar extinction coefficient 360 nm [1]	Molar extinction coefficient 370 nm [1]	Molar extinction coefficient 380 nm [1]	Molar extinction coefficient 390 nm [1]	Molar extinction coefficient 400 nm [1] [L/mol/cm]	Molar extinction coefficient 420 nm [1] [L/mol/cm]	Solubility at 25° C. with respect to DMAc [2] [g/100 g-DMAc]
CC(C)(C)CC(C)(C)c1cc(Cc2cc(C(C)(C)CC(C)(C)C)cc(-n3nc4ccccc4n3)c2O)c(O)c(-n2nc3ccccc3n2)c1 [LA31, 2,2′-methylenebis[6-(2H-benzotriazole-2-yl)-4-(1,1,3,3-tetramethylbutyl)phenol]]	27,300 L/mol · cm	19,800 L/mol · cm	9,000 L/mol · cm	1,400 L/mol · cm	<50	<50	>10
CCCCC(CC)C(=O)OCCOc1ccc(-c2nc(-c3ccccc3)nc(-c3ccccc3)n2)c(O)c1 (stereo not shown) [LA46, 2-(4,6-diphenyl-1,3,5-triazine-2-yl)-5-[2-(2-ethylhexanoyloxy)ethoxy]phenol]	10000 L/mol/cm	3,000 L/mol · cm	160 L/mol/cm	<50 L/mol/cm	<30	<30	>10
CC(C)(C)CC(C)(C)c1ccc(O)c(-n2nc3ccccc3n2)c1 [Sumisorb 340, 2-(2-hydroxy-5-tert-octylphenyl)benzotriazole]	13,100 L/mol · cm	7,700 L/mol · cm	2,200 L/mol · cm	320 L/mol/cm	<50	<50	>10
CCC(C)(C)c1cc(-n2nc3ccccc3n2)c(O)c(C(C)(C)CC)c1 [Sumisorb 350, 2-(2-hydroxy-3,5-di-tert-pentylphenyl)benzotriazole]	13,900 L/mol · cm	9,700 L/mol · cm	4,800 L/mol · cm	1,200 L/mol · cm	210	<50	>10
